Laboratory results taken from patent US20260071117A1, “FUNABLE FLUORESCENT COMPOUNDS AND USES THEREOF” (Arizona Board of Regents on Behalf of the University of …, priority 2021, published 2026).
“And” between values parts separate entries of the source, which are not always exact repeats. Identical values can stand only once.

Assay: Absorbance and fluorescence measurements (excitation maximum, emission maximum, quantum yield vs coumarin 151)
Assay type: physicochemical
Parameters: key to Quantum Yield: fraction relative to coumarin 151 in ethanol standard
Conditions: for λex: absorbance/excitation maximum; for Quantum Yield: coumarin 151 in ethanol as standard; for λem: emission maximum
Source text: All reagents and solvents were acquired from commercially available suppliers and used without further purification. Methanol(dried on molecular sieves-Acroseal) was obtained from Acros. […] 1H and 13C NMR spectra were obtained on a Bruker NMR spectrometer at 500/400 and 125/100 MHz respectively. The data is reported as follows: chemical shift in ppm (δ), multiplicity (s=singlet, d=doublet, dd=doublet of doublets, t=triplet, dt=doublet of triplets, td=triplet of doublets, q=quartet, p=pentet, m=multiplet). Coupling constants are reported in Hertz (Hz) and were automatically generated using known NMR analyzer software (MestReNova), these were then subsequently curated. High-resolution mass spectra were obtained using the positive ESI method for all the compounds, obtained in an Ion Cyclotron Resonance (ICR) spectrometer. Absorbance spectra were obtained using an Agilent 8453 UV-visible spectroscopy system. Fluorescence was measured on a Varian (Agilent) Cary Eclipse Fluorimeter. Quantum yield measurements were calculated and reported using coumarin 151 in ethanol as a standard.^1 Fluorescence scans were obtained using a 2.5 mm slit width unless otherwise noted.
The fluorescence was also measured in different solvents to examine the solvent effects.

[1] = 2.5 mm slit width, measurements run with methanol

| Compound | λex (measurements run with methanol) | Quantum Yield [1] | λem [1] | Quantum Yield (10 mm slit) | λem (10 mm slit width) | fluorescence (observation in words) |
| --- | --- | --- | --- | --- | --- | --- |
| 2-(3,4,5-trimethoxyphenyl)imidazo[1,2-a]pyridin-3-amine [Compound 10a] | 343 nm | 0.36 | 474 nm | – | – | – |
| Nc1c(-c2ccc3ccccc3c2)nc2cccnn12 [Compound 10ab, 2-(naphthalen-2-yl)imidazo[1,2-b]pyridazin-3-amine] | 438 nm | 0.04 | 543 nm | – | – | – |
| COc1ccc(-c2nc3cccnn3c2N)cc1 [Compound 10ac, 2-(4-methoxyphenyl)imidazo[1,2-b]pyridazin-3-amine] | 435 nm | 0.03 | 543 nm | – | – | – |
| COc1cc(-c2nc3cccnn3c2N)cc(OC)c1OC [Compound 10ad, 2-(3,4,5-trimethoxyphenyl)imidazo[1,2-b]pyridazin-3-amine] | 429 nm | 0.03 | 541 nm | – | – | – |
| COc1ccc(-c2nc3cccnn3c2N)c(OC)c1 [Compound 10ae, 2-(2,4-dimethoxyphenyl)imidazo[1,2-b]pyridazin-3-amine] | 433 nm | 0.02 | 555 nm | – | – | – |
| Nc1c(-c2ccc(N(c3ccccc3)c3ccccc3)cc2)nc2cccnn12 [Compound 10af, 2-(4-(diphenylamino)phenyl)imidazo[1,2-b]pyridazin-3-amine] | 438 nm | 0.05 | 544 nm | – | – | – |
| CCN(CC)c1ccc(-c2nc3cccnn3c2N)cc1 [Compound 10ag, 2-(4-(diethylamino)phenyl)imidazo[1,2-b]pyridazin-3-amine] | 444 nm | 0.06 | 572 nm | – | – | – |
| COC(=O)c1ccn2c(N)c(-c3ccccc3)nc2c1 [Compound 10ah, methyl 3-amino-2-phenylimidazo[1,2-a]pyridine-7-carboxylate] | 394 nm | 0.40 | 510 nm | – | – | – |
| COC(=O)c1ccn2c(N)c(-c3ccc4ccccc4c3)nc2c1 [Compound 10ai, methyl 3-amino-2-(naphthalen-2-yl)imidazo[1,2-a]pyridine-7-carboxylate] | 434 nm | 0.47 | 512 nm | – | – | – |
| COC(=O)c1ccn2c(N)c(-c3ccc(-c4ccccc4)cc3)nc2c1 [Compound 10aj, methyl 2-([1,1′-biphenyl]-4-yl)-3-aminoimidazo[1,2-a]pyridine-7-carboxylate] | 403 nm | 0.45 | 517 nm | – | – | – |
| COC(=O)c1ccn2c(N)c(-c3ccc(OC)cc3)nc2c1 [Compound 10ak, methyl 3-amino-2-(4-methoxyphenyl)imidazo[1,2-a]pyridine-7-carboxylate] | 394 nm | 0.40 | 510 nm | – | – | – |
| COC(=O)c1ccn2c(N)c(-c3cc(OC)c(OC)c(OC)c3)nc2c1 [Compound 10al, methyl 3-amino-2-(3,4,5-trimethoxyphenyl)imidazo[1,2-a]pyridine-7-carboxylate] | 399 nm | 0.51 | 512 nm | – | – | – |
| COC(=O)c1ccn2c(N)c(-c3ccc(OC)cc3OC)nc2c1 [Compound 10am, methyl 3-amino-2-(2,4-dimethoxyphenyl)imidazo[1,2-a]pyridine-7-carboxylate] | 402 nm | 0.49 | 519 nm | – | – | – |
| COC(=O)c1ccn2c(N)c(-c3ccc(N(c4ccccc4)c4ccccc4)cc3)nc2c1 [Compound 10an, methyl 3-amino-2-(4-(diphenylamino)phenyl)imidazo[1,2-a]pyridine-7-carboxylate] | 430 nm | 0.44 | 529 nm | – | – | – |
| CCN(CC)c1ccc(-c2nc3cc(C(=O)OC)ccn3c2N)cc1 [Compound 10ao, methyl 3-amino-2-(4-(diethylamino)phenyl)imidazo[1,2-a]pyridine-7-carboxylate] | 432 nm | 0.25 | 540 nm | – | – | – |
| CC(C)(C)Nc1c(-c2ccc(-c3nc4ccccn4c3NC(C)(C)C)cc2)nc2ccccn12 [Compound 10ap, 2,2′-(1,4-phenylene)bis(N-(tert-butyl)imidazo[1,2-a]pyridin-3-amine)] | 344 nm | 0.30 | 458 nm | – | – | – |
| COc1ccc(-c2nc3ccc(-c4ccccc4)cn3c2N)cc1 [Compound 10ar, 2-(4-methoxyphenyl)-6-phenylimidazo[1,2-a]pyridin-3-amine] | 350 nm | 0.09 | 510 nm | – | – | – |
| COc1ccc(-c2nc3ccc(N4CCCCC4)cn3c2N)cc1 [Compound 10as, 2-(4-methoxyphenyl)-6-(piperidin-1-yl)imidazo[1,2-a]pyridin-3-amine] | 341 nm | 0.07 | 479 nm | – | – | – |
| COc1ccc(-c2nc3cc(OC)ccn3c2N)cc1 [Compound 10at, 7-methoxy-2-(4-methoxyphenyl)imidazo[1,2-a]pyridin-3-amine] | 344 nm | 0.10 | 500 nm | – | – | – |
| COc1ccn2c(N)c(-c3ccc([N+](=O)[O-])cc3)nc2c1 [Compound 10au, 7-methoxy-2-(4-nitrophenyl)imidazo[1,2-a]pyridin-3-amine] | 360 nm | – | – | – | – | – |
| N#Cc1ccc(-c2nc3ccc(N4CCCCC4)cn3c2N)cc1 [Compound 10av, 4-(3-amino-6-(piperidin-1-yl)imidazo[1,2-a]pyridin-2-yl)benzonitrile] | 375 nm | 0.03 | 482 nm | – | – | – |
| Nc1c(-c2ccc([N+](=O)[O-])cc2)nc2ccc(N3CCCCC3)cn12 [Compound 10aw, 2-(4-nitrophenyl)-6-(piperidin-1-yl)imidazo[1,2-a]pyridin-3-amine] | 390 nm | – | – | – | – | – |
| COc1cc(-c2nc3cc(-c4ccncc4)ccn3c2N)cc(OC)c1OC [Compound 10ax, 7-(pyridin-4-yl)-2-(3,4,5-trimethoxyphenyl)imidazo[1,2-a]pyridin-3-amine] | 392 nm | 0.23 | 545 nm | – | – | – |
| CCN(CC)c1ccc(-c2nc3cc(-c4ccncc4)ccn3c2N)cc1 [Compound 10ay, 2-(4-(diethylamino)phenyl)-7-(pyridin-4-yl)imidazo[1,2-a]pyridin-3-amine] | 435 nm | 0.06 | 581 nm | – | – | – |

Second part, led by results:

| λex (measurements run with methanol) | Quantum Yield [1] | λem [1] | Quantum Yield (10 mm slit) | λem (10 mm slit width) | Compound | fluorescence (observation in words) |
| --- | --- | --- | --- | --- | --- | --- |
| 485 nm | – | – | 0.11 | 651 nm | COc1cc(-c2nc3cc([N+](=O)[O-])ccn3c2N)cc(OC)c1OC [Compound 10az, 7-nitro-2-(3,4,5-trimethoxyphenyl)imidazo[1,2-a]pyridin-3-amine] | – |
| 341 nm | 0.40 | 471 nm | – | – | COc1cccc(-c2nc3ccccn3c2N)c1OC [Compound 10b, 2-(2,3-dimethoxyphenyl)imidazo[1,2-a]pyridin-3-amine] | – |
| 550 nm | – | – | 0.09 | 720 nm | CCN(CC)c1ccc(-c2nc3cc([N+](=O)[O-])ccn3c2N)cc1 [Compound 10ba, 2-(4-(diethylamino)phenyl)-7-nitroimidazo[1,2-a]pyridin-3-amine] | fluorescence intensity is low |
| 343 nm | 0.38 | 472 nm | – | – | COc1cc(-c2nc3ccccn3c2N)cc(OC)c1OC [Compound 10c, 2-(3,4,5-trimethoxyphenyl)imidazo[1,2-a]pyridin-3-amine] | – |
| 344 nm | 0.35 | 473 nm and 478 nm | – | – | COc1cc(OC)cc(-c2nc3ccccn3c2N)c1 [Compound 10d, 2-(3,5-dimethoxyphenyl)imidazo[1,2-a]pyridin-3-amine] | – |
| 345 nm | 0.28 | 475 nm | – | – | Nc1c(-c2ccc3ccccc3c2)nc2ccccn12 [Compound 10e, 2-(naphthalen-2-yl)imidazo[1,2-a]pyridin-3-amine] | – |
| 339 nm | 0.30 | 473 nm | – | – | Nc1c(-c2ccccc2)nc2ccccn12 [Compound 10f, 2-phenylimidazo[1,2-a]pyridin-3-amine] | – |
| 340 nm | 0.39 | 472 nm | – | – | COc1ccc(-c2nc3ccccn3c2N)cc1 [Compound 10g, 2-(4-methoxyphenyl)imidazo[1,2-a]pyridin-3-amine] | – |
| 370 nm | – | – | – | – | Nc1c(-c2ccccn2)nc2ccccn12 [Compound 10h, 2-(pyridin-2-yl)imidazo[1,2-a]pyridin-3-amine] | – |
| 330 nm | – | – | – | – | Nc1c(-c2ccccc2[N+](=O)[O-])nc2ccccn12 [Compound 10i, 2-(2-nitrophenyl)imidazo[1,2-a]pyridin-3-amine] | – |
| 350 nm | – | – | – | – | Nc1c(-c2cccc([N+](=O)[O-])c2)nc2ccccn12 [Compound 10j, 2-(3-nitrophenyl)imidazo[1,2-a]pyridin-3-amine] | – |
| 304 nm | – | – | – | – | Nc1c(-c2ccc([N+](=O)[O-])cc2)nc2ccccn12 [Compound 10k, 2-(4-nitrophenyl)imidazo[1,2-a]pyridin-3-amine] | did not show any observable fluorescence intensity |
